Experimental data taken from PMC12375786, “Revolutionizing cancer treatment with Halomonas Aquamarina L-Glutaminase: insights from in vitro and computational studies” (Scientific Reports, 2025).

System: T1, L-GLS (L-glutaminase) of Halomonas aquamarina HBIM1
T1 construct: gene glsA
Details: unit printed as mM^-1 (reciprocal, probably mM meant); pH and temperature of the kinetic run not given

Km: 0.198 mM⁻¹
SMILES: NC(=O)CC[C@H](N)C(=O)O [L-glutamine]
